Test [1] has as its system T1, Receptor-type tyrosine-protein kinase FLT3 (Homo sapiens), P36888 [R834Q].
T1 sequence (whole entry): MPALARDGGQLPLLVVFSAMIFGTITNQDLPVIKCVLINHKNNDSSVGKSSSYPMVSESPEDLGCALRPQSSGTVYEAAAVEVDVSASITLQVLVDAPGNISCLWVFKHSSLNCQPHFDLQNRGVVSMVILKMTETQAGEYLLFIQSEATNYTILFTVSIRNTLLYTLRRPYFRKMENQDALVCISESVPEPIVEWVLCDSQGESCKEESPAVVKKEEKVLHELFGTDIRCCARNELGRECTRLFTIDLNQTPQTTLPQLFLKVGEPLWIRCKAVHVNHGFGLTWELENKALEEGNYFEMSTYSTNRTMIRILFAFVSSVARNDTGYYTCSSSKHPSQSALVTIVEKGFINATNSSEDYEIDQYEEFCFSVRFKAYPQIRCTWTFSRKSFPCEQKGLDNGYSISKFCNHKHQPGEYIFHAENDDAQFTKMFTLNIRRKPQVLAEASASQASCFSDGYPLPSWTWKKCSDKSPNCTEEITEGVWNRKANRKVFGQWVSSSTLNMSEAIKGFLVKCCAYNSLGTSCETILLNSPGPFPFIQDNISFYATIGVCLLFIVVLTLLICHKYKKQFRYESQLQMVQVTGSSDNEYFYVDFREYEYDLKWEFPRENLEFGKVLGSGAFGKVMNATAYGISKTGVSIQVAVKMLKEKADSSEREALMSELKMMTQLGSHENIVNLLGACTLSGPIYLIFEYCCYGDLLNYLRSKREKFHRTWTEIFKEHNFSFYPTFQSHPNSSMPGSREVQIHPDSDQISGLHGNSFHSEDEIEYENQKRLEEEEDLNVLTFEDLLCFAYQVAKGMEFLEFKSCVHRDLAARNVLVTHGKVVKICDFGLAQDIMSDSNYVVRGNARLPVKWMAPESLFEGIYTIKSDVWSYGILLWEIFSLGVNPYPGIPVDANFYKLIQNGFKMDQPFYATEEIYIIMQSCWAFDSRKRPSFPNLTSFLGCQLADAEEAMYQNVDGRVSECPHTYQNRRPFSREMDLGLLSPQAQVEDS
The experiment in a line: Selectivity interaction (KinomeScan (DiscoverX)) EUB0000595a FLT3. The settings on record: at 10 µM.

The target in test [2] is Cyclin-dependent kinase 8 (Homo sapiens, UniProt P49336). The experiment in a line: Selectivity interaction (KinomeScan (DiscoverX)) EUB0000092b CDK8. The settings on record: at 10 µM.
Sequence of Cyclin-dependent kinase 8 (P49336 whole entry): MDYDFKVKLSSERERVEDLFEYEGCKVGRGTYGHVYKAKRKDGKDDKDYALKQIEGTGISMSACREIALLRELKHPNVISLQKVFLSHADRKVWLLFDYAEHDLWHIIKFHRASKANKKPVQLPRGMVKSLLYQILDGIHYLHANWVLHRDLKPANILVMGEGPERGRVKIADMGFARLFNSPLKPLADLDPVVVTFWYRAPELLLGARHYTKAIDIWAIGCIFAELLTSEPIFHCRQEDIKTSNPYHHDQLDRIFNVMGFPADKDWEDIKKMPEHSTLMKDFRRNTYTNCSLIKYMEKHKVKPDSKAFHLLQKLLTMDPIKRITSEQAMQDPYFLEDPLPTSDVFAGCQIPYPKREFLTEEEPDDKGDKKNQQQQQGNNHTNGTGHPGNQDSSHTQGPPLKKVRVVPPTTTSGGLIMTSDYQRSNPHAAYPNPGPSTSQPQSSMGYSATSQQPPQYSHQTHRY
The target of test [3] is T2, Serine/threonine-protein kinase LATS1 (Homo sapiens) (UniProt O95835).
T2 sequence (whole entry): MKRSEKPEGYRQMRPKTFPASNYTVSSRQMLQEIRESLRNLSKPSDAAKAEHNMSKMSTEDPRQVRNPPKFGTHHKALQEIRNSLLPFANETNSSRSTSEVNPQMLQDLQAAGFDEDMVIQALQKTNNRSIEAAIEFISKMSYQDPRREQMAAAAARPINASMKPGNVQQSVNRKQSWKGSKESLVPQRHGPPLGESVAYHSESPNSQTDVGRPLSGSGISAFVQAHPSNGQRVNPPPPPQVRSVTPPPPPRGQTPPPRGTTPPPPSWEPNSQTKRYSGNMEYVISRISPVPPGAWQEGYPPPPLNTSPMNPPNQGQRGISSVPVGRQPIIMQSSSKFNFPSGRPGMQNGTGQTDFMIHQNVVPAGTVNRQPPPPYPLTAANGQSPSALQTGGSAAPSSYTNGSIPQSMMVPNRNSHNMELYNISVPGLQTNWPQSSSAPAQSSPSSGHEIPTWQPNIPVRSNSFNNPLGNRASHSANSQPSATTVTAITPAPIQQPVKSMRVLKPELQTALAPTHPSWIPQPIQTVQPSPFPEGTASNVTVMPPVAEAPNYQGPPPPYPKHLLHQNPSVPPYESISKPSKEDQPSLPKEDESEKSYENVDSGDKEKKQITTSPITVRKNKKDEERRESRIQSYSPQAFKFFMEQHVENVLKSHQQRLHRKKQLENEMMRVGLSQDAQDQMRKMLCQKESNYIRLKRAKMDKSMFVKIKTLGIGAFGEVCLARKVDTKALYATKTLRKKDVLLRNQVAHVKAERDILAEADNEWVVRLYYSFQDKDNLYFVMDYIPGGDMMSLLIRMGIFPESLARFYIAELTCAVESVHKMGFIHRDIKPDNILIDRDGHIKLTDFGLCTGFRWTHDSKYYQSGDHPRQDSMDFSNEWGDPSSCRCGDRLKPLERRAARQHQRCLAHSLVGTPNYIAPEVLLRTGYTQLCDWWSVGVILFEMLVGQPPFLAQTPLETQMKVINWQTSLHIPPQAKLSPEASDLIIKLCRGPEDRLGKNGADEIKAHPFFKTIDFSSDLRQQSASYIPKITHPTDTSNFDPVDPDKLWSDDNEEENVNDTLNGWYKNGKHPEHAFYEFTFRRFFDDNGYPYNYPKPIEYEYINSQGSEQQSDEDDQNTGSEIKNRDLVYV
The test can be described thus: Selectivity interaction (Kinase panel (KiNativ target engagement assay in Jurkat cells)) EUB0001635a LATS1. The following applies: at 1 µM. Type of test: cell-based.

On to `COCC(=O)NC/C=C/c1ccc2ncnc(Nc3ccc(Oc4ccc(C)nc4)c(C)c3)c2c1` [CP-724714], for which the % of control in test [1] worked out at 100%.

Take `CCC(=O)N1CCN(c2ccc(-n3c(=O)ccc4cnc5ccc(-c6cnc7ccccc7c6)cc5c43)cc2C(F)(F)F)CC1`: in test [2], the % of control stood at 4.6%.

For the compound `C=CC(=O)Nc1ccc(C(=O)Nc2[nH]nc3c2CN(C(=O)N[C@H](CN(C)C)c2ccccc2)C3(C)C)cc1`, the % of engagement in test [3] is 3.9%.

Source of the values: ChEMBL document CHEMBL5465560, “Selectivity Literature for EUbOPEN Chemogenomic Library” (2024).
